# In patent publication US20150259331A1, “PROTOZOAN PARASITE GROWTH INHIBITORS” (Northeastern University, priority 2014, published 2015):
# pEC50: −log10 of the molar value. Read-outs that look alike come from different tables or passages of the source. Marks after values point to notes of the source that are not given here.
# Legend:
# [1] = test system: T. brucei brucei Lister 427; experiment: Trypanosome replication assay; assay type: cell-based, Trypanosoma brucei brucei; conditions: 48 h, values ±7%
# Procedure: Then 2 μL of DMSO (control) or different concentrations of drugs prepared from 200× DMSO stocks were added to the cultures. Cells were incubated at 37° C. for 48 h and counted with a hemocytometer. […] All experiments were repeated thrice in independent studies where each dose was administered in duplicate (total n=6). HepG2 Cell Toxicity Assay. The 384 well MTT cytotoxicity assay is a modification of the MTT method described by Ferrari et al. optimized for 384-well throughput, with modifications described below.
# T. cruzi = T. cruzi growth inhibition; assay type: cell-based, Trypanosoma cruzi
# L. major promastigote = L. major promastigote assay; assay type: cell-based
# L. major amastigote = L. major amastigote assay; assay type: cell-based
# P. falciparum D6 = P. falciparum D6 assay; assay type: cell-based; conditions: strain D6
# P. falciparum W2 = P. falciparum W2 assay; assay type: cell-based
# P. falciparum C235 = P. falciparum C235 assay; assay type: cell-based; conditions: read-out: P. falciparum C235 (EC50)
# [2] = concentration giving 50% inhibition of growth of T brucei brucei Lister 427 cells, read-out: Tbb EC50
# [3] = Trypanosoma brucei, concentration giving 50% inhibition of growth of T brucei brucei Lister 427 cells, read-out: Tbb EC50
# [4] = Trypanosoma brucei, read-out: Tbb EC50, concentration giving 50% inhibition of growth of T brucei brucei Lister 427 cells
# [5] = strain W2, read-out: P. falciparum W2 (EC50)
# [6] = Plasmodium falciparum, strain W2, read-out: P. falciparum W2 (EC50)
# [7] = Plasmodium falciparum, strain C235
"pEC50 [1, 2]",pEC50 (L. major promastigote),pEC50 (L. major amastigote),pEC50 (P. falciparum D6),pEC50 (P. falciparum W2; [5]),pEC50 (P. falciparum C235; strain C235),Structure (SMILES),also measured
6.37,,,,,,"CCCS(=O)(=O)CCNCc1ccc(-c2ccc3ncnc(Nc4ccc(OCc5cccc(F)c5)c(Cl)c4)c3c2)o1 [Compound 3, reference compound]",
6.32,,,,,,"CC(C)S(=O)(=O)CCNCc1ccc(-c2ccc3ncnc(Nc4ccc(OCc5cccc(F)c5)c(Cl)c4)c3c2)o1 [Compound 4, reference compound]",
6.25,,,,,,"CS(=O)(=O)CCNCc1ccc(-c2ccc3ncnc(Nc4ccc(OCc5ccccc5)c(Br)c4)c3c2)o1 [Compound 7, reference compound]",
5.82,,,,,,"CS(=O)(=O)CCN(Cc1ccccc1)Cc1ccc(-c2ccc3ncnc(Nc4ccc(OCc5cccc(F)c5)c(Cl)c4)c3c2)o1 [Compound 9, reference compound]",
,,,,,,"Cc1ccc(-c2ccc3ncnc(Nc4ccc(OCc5cccc(F)c5)c(Cl)c4)c3c2)c2ccccc12 [Compound 10b, N-(3-Chloro-4-((3-fluorobenzyl)oxy)phenyl)-6-(4-methylnaphthalen-1-yl)quinazolin-4-amine]","pEC50 [1, 3]: 5.64"
5.41,,,,,,"CCNC(=O)c1ccc(-c2ccc3ncnc(Nc4ccc(OCc5cccc(F)c5)c(Cl)c4)c3c2)cc1F [Compound 10c, 4-(4-4-((3-Chloro-4-((3-fluorobenzyl)oxy)phenyl)amino)-quinazolin-6-yl)-N-ethyl-2-fluorobenzamide]",
5.38,,,,,,"Cc1nnc(-c2cccc(-c3ccc4ncnc(Nc5ccc(OCc6cccc(F)c6)c(Cl)c5)c4c3)c2)o1 [Compound 10d, N-(3-Chloro-4-((3-fluorobenzyl)oxy)phenyl)-6-(3-(5-methyl-1,3,4-oxadiazol-2-1)phenyl)quinazolin-4-amine]",
,,,,,,"O=C(NC1CC1)c1cccc(-c2ccc3ncnc(Nc4ccc(OCc5cccc(F)c5)c(Cl)c4)c3c2)c1 [Compound 10e, 3-(4-((3-Chloro-4-((3-fluorobenzyl)oxy)phenyl)amino)-quinazolin-6-yl)-N-cyclopropylbenzamide]","pEC50 [1, 3]: 5.35"
,,,,,,"Fc1cccc(COc2ccc(Nc3ncnc4ccc(-c5cccc6ncccc56)cc34)cc2Cl)c1 [Compound 10f, N-(3-Chloro-4-((3-fluorobenzyl)oxy)phenyl)-6-(quinolin-5-yl)quinazolin-4-amine]","pEC50 [1, 3]: 5.34"
,,,,,,"Fc1cccc(COc2ccc(Nc3ncnc4ccc(-c5ccccc5Oc5ccccc5)cc34)cc2Cl)c1 [Compound 10g, N-(3-Chloro-4-((3-fluorobenzyl)oxy)phenyl)-6-(2-phenoxyphenyl)quinazolin-4-amine]","pEC50 [1, 3]: 5.28"
,,,,,,"Oc1ccc(-c2ccc3ncnc(Nc4ccc(OCc5cccc(F)c5)c(Cl)c4)c3c2)cc1 [Compound 10i, 4-(4-((3-Chloro-4-((3-fluorobenzyl)oxy)phenyl)amino)-quinazolin-6-yl)phenol]","pEC50 [1, 4]: 5.19"
4.65,,,,,,O=c1[nH]cc(-c2ccc3ncnc(Nc4ccc(OCc5cccc(F)c5)c(Cl)c4)c3c2)c(=O)[nH]1 [Compound 10j],
,,,,,,"CC(C)(C)NS(=O)(=O)c1ccccc1-c1ccc2ncnc(Nc3ccc(OCc4cccc(F)c4)c(Cl)c3)c2c1 [Compound 10w, N-(tert-Butyl)-2-(4-((3-chloro-4-((3-fluorobenzyl)oxy)-phenyl)amino)quinazolin-6-yl)benzenesulfonamide]","pEC50 [1, 3]: 5.33; pEC50 ([1]; concentration giving 50% inhibition of growth of T brucei brucei Lister 427 cells, listed as NEU-620, read-out: Tbb EC50): 5.33; pEC50 (T. cruzi; Trypanosoma cruzi): 5.19"
,,,,,,Cl.O=S(=O)(c1ccc(-c2ccc3ncnc(Nc4ccc(OCc5ccccc5F)c(Cl)c4)c3c2)cc1)N1CCOCC1 [Compound 20i],T. cruzi % inh at 10 μM (T. cruzi): 10%
,,,,,,"O=C(c1cccc(-c2ccc3ncnc(Nc4ccc(OCc5cccc(F)c5)c(Cl)c4)c3c2)c1)N1CCOCC1 [Compound 23e, (3-(4-((3-Chloro-4-((3-fluorobenzyl)oxy)phenyl)amino)-quinazolin-6-yl)phenyl)(morpholino)methanone]","pEC50 [1, 3]: 6.26; pEC50 (T. cruzi; Trypanosoma cruzi): 5.46; pEC50 (L. major promastigote; Leishmania major): 5.52; pEC50 (L. major amastigote; Leishmania major): < 4.82; pEC50 (P. falciparum D6; Plasmodium falciparum): 6.12; pEC50 (P. falciparum W2; [6]): 5.96; pEC50 (P. falciparum C235; [7]): 5.92"
,,,,,,"O=C(c1ccc(-c2ccc3ncnc(Nc4ccc(OCc5cccc(F)c5)c(Cl)c4)c3c2)cc1)N1CCOCC1 [Compound 23f, (4-(4-((3-Chloro-4-((3-fluorobenzyl)oxy)phenyl)amino)-quinazolin-6-yl)phenyl)(morpholino)methanone]","pEC50 [1, 3]: 5.92; pEC50 ([1]; concentration giving 50% inhibition of growth of T brucei brucei Lister 427 cells, listed as NEU-783, read-out: Tbb EC50): 5.92; pEC50 (T. cruzi; Trypanosoma cruzi): 5.55; pEC50 (L. major promastigote; Leishmania major): 6.07; pEC50 (L. major amastigote; Leishmania major): 5.85; pEC50 (P. falciparum D6; Plasmodium falciparum): 6.40; pEC50 (P. falciparum W2; [6]): 6.07; pEC50 (P. falciparum C235; [7]): 6.21"
,,,,,,"Fc1cccc(COc2ccc(Nc3ncnc4ccc(-c5ccc(N6CCCCC6)cc5)cc34)cc2Cl)c1 [Compound 23h, N-(3-Chloro-4-((3-fluorobenzyl)oxy)phenyl)-6-(4-(piperidin-1-yl)phenyl)quinazolin-4-amine]","pEC50 [1, 4]: 6.42; pEC50 (T. cruzi; Trypanosoma cruzi): 5.14; pEC50 (L. major promastigote; Leishmania major): < 4.82; pEC50 (L. major amastigote; Leishmania major): 5.30; pEC50 (P. falciparum D6; Plasmodium falciparum): 6.24; pEC50 (P. falciparum W2; Plasmodium falciparum, W2, read-out: P. falciparum W2 (EC50)): 5.92; pEC50 (P. falciparum C235; Plasmodium falciparum): 6.00"
6.19,5.60,5.46,7.41,7.14,7.19,Fc1cccc(COc2ccc(Nc3ncnc4ccc(-c5cccc(CN6CCCCC6)c5)cc34)cc2Cl)c1 [Compound 23i],pEC50 (T. cruzi): 5.82
5.82,5.08,5.26,7.17,6.96,7.04,Fc1cccc(COc2ccc(Nc3ncnc4ccc(-c5ccc(CN6CCCCC6)cc5)cc34)cc2Cl)c1 [Compound 23j],pEC50 (T. cruzi): 5.47
,,,,,,"O=C(c1ccc(-c2ccc3ncnc(Nc4ccc(OCc5cccc(F)c5)c(Cl)c4)c3c2)cc1)N1CCCCC1 [Compound 23l, (4-(4-((3-Chloro-4-((3-fluorobenzyl)oxy)phenyl)amino)-quinazolin-6-yl)phenyl)(piperidin-1-yl)methanone]","pEC50 [1, 3]: 6.03; pEC50 (T. cruzi; Trypanosoma cruzi): < 4.30; pEC50 (L. major promastigote; Leishmania major): 6.00; pEC50 (L. major amastigote; Leishmania major): 5.54; pEC50 (P. falciparum D6; Plasmodium falciparum): 6.60; pEC50 (P. falciparum W2; [6]): 6.06; pEC50 (P. falciparum C235; [7]): 6.44"
6.00,4.85,4.85,6.57,6.24,6.37,CC(C)(C)OC(=O)N1CCN(S(=O)(=O)c2ccc(-c3ccc4ncnc(Nc5ccc(OCc6cccc(F)c6)c(Cl)c5)c4c3)cc2)CC1 [NEU-624],T. cruzi % inh at 10 μM (T. cruzi): (5)* %
6.00,5.44,5.96,6.59,6.27,6.44,Cc1cc(-c2ccc3ncnc(Nc4ccc(OCc5cccc(F)c5)c(Cl)c4)c3c2)cnc1N1CCOCC1 [NEU-632],T. cruzi % inh at 10 μM (T. cruzi): 49%
6.47,< 4.82,< 4.82,6.43,6.20,6.30,O=C(c1cncc(-c2ccc3ncnc(Nc4ccc(OCc5cccc(F)c5)c(Cl)c4)c3c2)c1)N1CCOCC1 [NEU-640],T. cruzi % inh at 10 μM (T. cruzi): −2%
5.41,5.40,4.66,6.10,5.59,5.92,Fc1cccc(COc2ccc(Nc3ncnc4ccc(-c5ccccc5)cc34)cc2Cl)c1 [NEU-706],pEC50 (T. cruzi): 5.74
6.60,,,,,,Fc1cccc(COc2ccc(Nc3ncnc4ccc(-c5cccc(N6CCNCC6)c5)cc34)cc2Cl)c1 [NEU-711],pEC50 (T. cruzi): 5.66

Structure (SMILES),"pEC50 [1, 2]",pEC50 (L. major promastigote),pEC50 (L. major amastigote),pEC50 (P. falciparum D6),pEC50 (P. falciparum W2; [5]),pEC50 (P. falciparum C235; strain C235),also measured
"Fc1cccc(COc2ccc(Nc3ncnc4ccc(-c5cc6ccccc6s5)cc34)cc2Cl)c1 [Compound 10h, 6-(Benzo[b]thiopen-2-yl)-N-(3-chloro-4-((3-fluorobenzyl)-oxy)phenyl)quinazolin-4-amine]",5.22,,,,,,
Fc1cccc(COc2ccc(Nc3ncnc4ccc(-c5cccc(CN6CCOCC6)c5)cc34)cc2Cl)c1 [Compound 23c],6.44,5.48,5.52,6.72,6.46,6.54,pEC50 (T. cruzi): 5.62
O=C(c1cccc(-c2ccc3ncnc(Nc4ccc(OCc5cccc(F)c5)c(Cl)c4)c3c2)c1)N1CCCC1 [NEU-618],6.28,< 4.82,< 4.82,7.16,7.05,7.05,T. cruzi % inh at 10 μM (T. cruzi): (7)* %
CC(C)(C)OC(=O)N1CCN(c2ccc(-c3ccc4ncnc(Nc5ccc(OCc6cccc(F)c6)c(Cl)c5)c4c3)cc2)CC1 [NEU-634],5.22,5.51,5.51,6.07,5.49,5.96,T. cruzi % inh at 10 μM (T. cruzi): (8)* %
CN(C)c1cccc(-c2ccc3ncnc(Nc4ccc(OCc5cccc(F)c5)c(Cl)c4)c3c2)c1 [NEU-708],5.66,< 4.82,< 4.82,6.34,5.85,6.26,T. cruzi % inh at 10 μM (T. cruzi): (58)* %
